Like-named read-outs stand apart in the source and are kept apart here.

For series [1], the target named is T1, wild type HCV NS3/4A 1b protease enzyme (Hepatitis C virus genotype 1b, UniProt P26663).
T1 construct: 10× stocks of NS3/4A protease enzyme from Bioenza (Mountain View, Calif.); purchased Bioenza (Mountain View, Calif.)
Briefly: biochemical. The format is biochemical. As to conditions: read-out: Inhibition, WT; WT enzyme, FRET assay.

Series [2] addresses T2, A156T mutant of the HCV NS3/4A 1b protease enzyme (Hepatitis C virus genotype 1b, UniProt P26663, A1182T).
T2 construct: 10× stocks of NS3/4A protease enzyme from Bioenza (Mountain View, Calif.); purchased Bioenza (Mountain View, Calif.)
The series can be described thus: HCV Protease FRET Assay (IC50), A156T mutant. The format is biochemical. As to conditions: read-out: Inhibition, HCV A156T; A156T enzyme, FRET assay. Here is the method:
HCV Protease FRET Assay for Wild Type and Mutated NS3/4A 1b Enzymes (IC50)
The protocol is a modified FRET-based assay (v—02) from In Vitro Resistance Studies of HCV Serine Protease Inhibitors, 2004, JBC, vol. 279, No. 17, pp 17508-17514.
10× stocks of NS3/4A protease enzyme from Bioenza (Mountain View, Calif.) and 1.13× 5-FAM/QXL™ 520 FRET peptide substrate from Anaspec (San Jose, Calif.) were prepared in 50 mM HEPES, pH 7.8, 100 mM NaCl, 5 mM DTT and 20% glycerol. 5 μL of each enzyme were pre-incubated in a Corning (#3573) 384-well, black, non-treated microtiter plate (Corning, N.Y.) for 30 min at 25° C. with a 0.5 μL volume of 50% DMSO and serially diluted compounds prepared in 50% DMSO. Protease reactions were started with the addition of 45 μL of the FRET substrate and monitored for 120 minutes at λex487/λem514 through Quad^4 monochromoters in a Synergy^4 plate reader from BioTek (Winooski, Vt.). At the conclusion of each assay, progress curves from each well were examined for linear reaction kinetics and fit statistics (R^2, absolute sum of squares). Initial velocity (0 minutes to 30+ minutes) from each reaction was determined from the slope of a plot of relative fluorescence units vs time (minutes) and then plotted against inhibitor concentration to estimate IC50 from log[Inhibitor] vs Response, Variable Slope model in GraphPad Prism from GraphPad Software (San Diego, Calif.).
The compound numbers correspond to the compound numbers in Table 3. […] ;

Series [3] deals with T3, D168A mutant of the HCV NS3/4A 1b protease enzyme (Hepatitis C virus genotype 1b, UniProt P26663, D1194A).
T3 construct: 10× stocks of NS3/4A protease enzyme from Bioenza (Mountain View, Calif.); purchased Bioenza (Mountain View, Calif.)
The series can be described thus: HCV Protease FRET Assay (IC50), D168A mutant. The series is classed as biochemical. The settings on record: read-out: Inhibition, HCV D168A; D168A enzyme, FRET assay.

In series [4] the test system is HCV RNA replicon in cell line ET (luc-ubi-neo/ET), human Huh7 hepatoma. The series can be described thus: Method A: HCV RNA replicon antiviral assay (luciferase, ET cell line). The format is cell-based, Hepatitis C virus. As to conditions: Hepatitis C virus, Huh-7. In a few lines:
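ET replicon cells (Huh7 carrying luciferase-reporter HCV replicon) plated at 5×10^3 cells/well and exposed 72 hr to six 3-fold drug concentrations in DMEM/5% FBS. Replicon luciferase gave EC50/EC90; CytoTox-1 cell counts gave IC50 (viability); […]. Interferon alpha-2b served as positive control.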

In series [5] the test system is cell line ET (luc-ubi-neo/ET), human Huh7 hepatoma cell line. The series can be described thus: Method A: cytotoxicity in ET replicon cells (CytoTox-1). The format is cell-based. The settings on record: concentration decreasing cell viability by 50%, 72 hr. Here is the method: The compounds were assayed to evaluate the antiviral activity and cytotoxicity of compounds in vitro using HCV RNA replicons. This assay used the cell line ET (luc-ubi-neo/ET), which is a human Huh7 hepatoma cell line that contains an HCV RNA replicon with a stable luciferase (Luc) reporter and three cell culture-adaptive mutations. […]
The ET cell line was grown in Dulbecco's modified essential media (DMEM), 10% fetal bovine serum (FBS), 1% penicillin-streptomycin (pen-strep), 1% glutamine, 250 μg/ml G418 in a 5% CO2 incubator at 37° C. All cell culture reagents were obtained from Mediatech (Manassas, Va.). Cells were trypsinized (1% trypsin:EDTA) and plated out at 5×10^3 cells/well in white 96-well assay plates (Costar) dedicated to cell number (cytotoxicity) or antiviral activity assessments. Drugs were added at six 3-fold concentrations each and the assay was run in DMEM, 5% FBS, 1% pen-strep, 1% glutamine. Human interferon alpha-2b (PBL Biolabs, New Brunswick, N.J.) was included in each run as a positive control compound. Cells were processed 72 hr post drug addition when the cells are still subconfluent. Antiviral activity was measured by analyzing replicon-derived luciferase activity using the Steady-Glo Luciferase Assay System (Promega, Madison, Wis.) according to manufacturer's instruction. The number of cells in each well was determined by CytoTox-1 reagent (Promega). […].

For series [6], the target named is T1, wild type HCV NS3/4A 1b protease enzyme. Briefly: HCV Protease FRET Assay (IC50_APP), wild type. The series is classed as biochemical. As to conditions: read-out: IC50_APP, WT; apparent IC50, wild type NS3/4A 1b.
Series [7] deals with T2, A156T mutant of the HCV NS3/4A 1b protease enzyme. Briefly: HCV Protease FRET Assay (IC50_APP), A156T mutant. The series is classed as biochemical. As to conditions: apparent IC50, A156T mutant; read-out: IC50_APP, HCV A156T.
The target in series [8] is T3, D168A mutant of the HCV NS3/4A 1b protease enzyme. The series can be described thus: HCV Protease FRET Assay (IC50_APP), D168A mutant. As to conditions: apparent IC50, D168A mutant; read-out: IC50_APP, HCV D168A. The format is biochemical.
[9] abbreviates: Replicon, assay of Example 22, 72 hr, read-out: Inhibition, Replicon.
Setting [10] is: assay described in Example 22, read-out: Replicon (IC50).

On to `C=C[C@@H]1C[C@]1(NC(=O)[C@@H]1C[C@@H](Oc2cc(-c3ccccc3)nc3cc(OC)ccc23)CN1C(=O)[C@H](CNC(=O)/C=C/CN(C)C)NC(=O)OC(C)(C)C)C(=O)NS(=O)(=O)c1ccccc1` [Compound I-5, N-[(1,1-dimethylethoxy)carbonyl]-3-[(4-dimethylamino-2-butenoyl)amino]-L-alanyl-(4R)-4-[(7-methoxy-2-phenyl-4-quinolinyl)oxy]-L-prolyl-1-amino-2-ethenyl-N-(phenylsulfonyl)-(1R,2S)-cyclopropanecarboxamide], for which the IC50 is less than 10 nM in series [1], 1000 to 10000 nM in series [2], 1000 to 10000 nM in series [3] and 1000 to 10000 nM in series [4] (setting [9]). The “Inhibition, Cytotoxicity” value in series [5] is “E (IC50≧10,000 nM)”.

Take `C=CC(=O)NCC[C@H](NC(=O)OC(C)(C)C)C(=O)N1C[C@H](Oc2cc(-c3ccccc3)nc3cc(OC)ccc23)C[C@H]1C(=O)N[C@]1(C(=O)NS(=O)(=O)c2ccccc2)C[C@H]1C=C` [Compound I-8, (2S)-2-[[(1,1-dimethylethoxy)carbonyl]amino]-4-(2-propenoyl)amino-butanoyl-(4R)-4-[(7-methoxy-2-phenyl-4-quinolinyl)oxy]-L-prolyl-1-amino-2-ethenyl-N-(phenylsulfonyl)-(1R,2S)-cyclopropanecarboxamide]: the IC50 in series [1] was less than 10 nM; in series [2] it was 10 to 100 nM; in series [3], 10 to 100 nM; in series [4] (setting [9]) it was 100 to 1000 nM. The “Inhibition, Cytotoxicity” value in series [5] was “D (IC50>1000 nM and <10,000 nM)”.

Take `C=C[C@@H]1C[C@]1(NC(=O)[C@@H]1C[C@@H](Oc2cc(-c3ccccc3)nc3cc(OC)ccc23)CN1C(=O)[C@H](Cn1sc2ccccc2c1=O)NC(=O)OC(C)(C)C)C(=O)NS(=O)(=O)c1ccccc1` [Compound I-10, N-[(1,1-dimethylethoxy)carbonyl]-3-(benzoisothiazolin-3-one-2-yl)-L-alanyl-(4R)-4-[(7-methoxy-2-phenyl-4-quinolinyl)oxy]-L-prolyl-1-amino-2-ethenyl-N-(phenylsulfonyl)-(1R,2S)-cyclopropanecarboxamide]: the IC50 is less than 10 nM in series [1], 10 to 100 nM in series [2], 10 to 100 nM in series [3] and 100 to 1000 nM in series [4] (setting [9]). Besides, the “Inhibition, Cytotoxicity” value in series [5] is “D (IC50>1000 nM and <10,000 nM)”.

For `C=C[C@@H]1C[C@]1(NC(=O)[C@@H]1C[C@@H](Oc2cc(-c3ccccc3)nc3cc(OC)ccc23)CN1C(=O)[C@H](CN(C)C(=O)/C=C/CN(C)C)NC(=O)OC(C)(C)C)C(=O)NS(=O)(=O)c1ccccc1` [Compound I-30, tert-butyl-(S)-3-((E)-4-(dimethylamino)-N-methylbut-2-enamido)-1-((2S,4R)-4-(7-methoxy-2-phenylquinolin-4-yloxy)-2-((1R,2S)-1-(phenylsulfonylcarbamoyl)-2-vinylcyclopropylcarbamoyl)pyrrolidin-1-yl)-1-oxopropan-2-ylcarbamate], the IC50 in series [1] was less than 10 nM; in series [3], 100 to 1000 nM; in series [4] (setting [9]) it was 10 to 100 nM; in series [4] (setting [10]), 10 to 100 nM; in series [6] it was 10 to 100 nM; in series [7] it was 1000 to 10000 nM. Besides, the IC50 in series [8] was in the range of 1000 to 10000 nM. In addition, the IC90 in series [4] (assay described in Example 22) fell in the range of 100 to 1000 nM. In series [5], the “Inhibition, Cytotoxicity” value was “E (IC50≧10,000 nM)”.

As to `C=C[C@@H]1C[C@]1(NC(=O)[C@@H]1C[C@@H](Oc2cc(-c3ccccc3)nc3cc(OC)ccc23)CN1C(=O)[C@H](CN(C)C(=O)C(=C)C)NC(=O)OC(C)(C)C)C(=O)NS(=O)(=O)c1ccccc1` [Compound I-32, tert-butyl-(S)-1-((2S,4R)-4-(7-methoxy-2-phenylquinolin-4-yloxy)-2-((1R,2S)-1-(phenylsulfonylcarbamoyl)-2-vinylcyclopropylcarbamoyl)pyrrolidin-1-yl)-3-(N-methylmethacrylamido)-1-oxopropan-2-ylcarbamate], the IC50 is less than 10 nM in series [1], 1000 to 10000 nM in series [3] and 100 to 1000 nM in series [4] (setting [9]). Also, the “Inhibition, Cytotoxicity” value in series [5] is recorded as “E (IC50≧10,000 nM)”.

For the compound `C=CC(=O)NC[C@H](NC(=O)OC(C)(C)C)C(=O)N1C[C@H](Oc2cc(-c3ccccc3)nc3cc(OC)ccc23)C[C@H]1C(=O)N[C@]1(C(=O)O)C[C@H]1C=C` [Compound I-41, (1R,2S)-1-((2S,4R)-1-((S)-3-acrylamido-2-(tert-butoxycarbonylamino)propanoyl)-4-(7-methoxy-2-phenylquinolin-4-yloxy)pyrrolidine-2-carboxamido)-2-vinylcyclopropanecarboxylic acid], the IC50 in series [1] was 10 to 100 nM; in series [3], 1000 to 10000 nM; in series [4] (setting [9]) it was greater than 10000 nM. In series [5], the “Inhibition, Cytotoxicity” value is “E (IC50≧10,000 nM)”.

Consider `C#CCN(C)C(=O)CCCC(=O)N[C@@H](CNC(=O)C=C)C(=O)N1C[C@H](Oc2cc(-c3ccccc3)nc3cc(OC)ccc23)C[C@H]1C(=O)N[C@]1(C(=O)NS(=O)(=O)c2ccccc2)C[C@H]1C=C` [Compound I-42], for which the IC50 in series [1] was less than 10 nM; in series [2], 100 to 1000 nM; in series [4] (setting [9]) it was greater than 10000 nM; in series [4] (setting [10]), greater than 10000 nM; in series [6], 10 to 100 nM; in series [8] it was 100 to 1000 nM. Moreover, the IC90 in series [4] (assay described in Example 22) was greater than 10000 nM. In series [5], the “Inhibition, Cytotoxicity” value is recorded as “E (IC50≧10,000 nM)”.

`C=C[C@@H]1C[C@]1(NC(=O)[C@@H]1C[C@@H](Oc2cc(-c3ccccc3)nc3cc(OC)ccc23)CN1C(=O)CNC(=O)/C=C/C)C(=O)NS(=O)(=O)c1ccccc1` [Compound I-47, (2S,4R)-1-(2-(E)-but-2-enamidoacetyl)-4-(7-methoxy-2-phenylquinolin-4-yloxy)-N-((1R,2S)-1-(phenylsulfonylcarbamoyl)-2-vinylcyclopropyl)pyrrolidine-2-carboxamide]: the IC50 fell in the range of 10 to 100 nM in series [1], 1000 to 10000 nM in series [3] and 1000 to 10000 nM in series [4] (setting [9]). In series [5], the “Inhibition, Cytotoxicity” value is on record as “E (IC50≧10,000 nM)”.

In the case of `C=C[C@@H]1C[C@]1(NC(=O)[C@@H]1C[C@@H](Oc2cc(-c3ccccc3)nc3cc(OC)ccc23)CN1C(=O)CNC(=O)C#CC)C(=O)NS(=O)(=O)C1CC1` [Compound I-48, (2S,4R)-1-(2-but-2-ynamidoacetyl)-N-((1R,2S)-1-(cyclopropylsulfonylcarbamoyl)-2-vinylcyclopropyl)-4-(7-methoxy-2-phenylquinolin-4-yloxy)pyrrolidine-2-carboxamide], the IC50 in series [1] was 10 to 100 nM; in series [3], 1000 to 10000 nM; in series [4] (setting [9]), 1000 to 10000 nM. The “Inhibition, Cytotoxicity” value in series [5] is “E (IC50≧10,000 nM)”.

The values are drawn from patent US8309685B2 (Celgene Avilomics Research, Inc., priority 2007, dated 2012).
